Results from paper PMC9232612, “A phase 1b randomised controlled trial of a glucagon-like peptide-1 and glucagon receptor dual agonist IBI362 (LY3305677) in Chinese patients with type 2 diabetes” (Nature Communications, 2022).
Values joined by “and” are separate entries in the source; they are usually repeats but may differ in a detail not shown here. Equal values may be shown once.

What was measured:
Format in all cases: in vivo, human
[1] = tested on: Chinese patients with T2D; experiment: Homeostatic model assessment of β-cell function (HOMA-β); settings: for Change from baseline to week 12 in HOMA-β, individual: single patients
Text: Exploratory outcomes included change from baseline in body weight, waist circumference, body-mass index (BMI) and change in homeostatic model assessment of β-cell function (HOMA-β) and insulin resistance (HOMA-IR).

[2] = tested on: Chinese patients with T2D; experiment: Alanine aminotransferase and aspartate aminotransferase levels
Text: (§1) Primary outcomes of the study were the safety and tolerability of IBI362. Safety assessment included adverse events, physical examinations, laboratory tests (including lipase, amylase and calcitonin level measures), vital signs and 12-lead electrocardiogram. Adverse events were categorized according to the Medical Dictionary for Regulatory Activities system organ classes (SOCs) and preferred terms. Treatment-emergent adverse events (TEAEs) were monitored from the time of informed consent to the safety follow-up period. The severity of TEAEs (mild, moderate or severe) and the association between an event and the study drug were assessed by investigators based on pre-specified criteria.
CFB in ALT (U/L), mean (SD)
CFB in AST (U/L), mean (SD)
Fig. S2: Change from baseline in ALT and AST levels over time.
a. CFB in ALT levels over time. b. CFB in AST levels over time. Data are plotted as means +/- SD.
ALT = alanine aminotransferase; AST = aspartate aminotransferase; CFB = change from baseline;
SD = standard deviation. Source data are provided as a Source Data file. […]

[3] = tested on: Chinese patients with T2D; experiment: Blood pressure (systolic, diastolic); settings: mean
Text: as §1
Fig. S7: Change from baseline in waist circumference, BMI and blood pressure at week 12. a. CFB in waist circumference at week 12. b. CFB in BMI at week 12. c. CFB in blood pressure at week 12. Data are plotted as means +/- SD. a. IBI362 3.0 mg n = 7; IBI362 4.5 mg n = 5; IBI362 6.0 mg n = 8; Pooled placebo n = 11; Dulaglutide n = 6. b. IBI362 3.0 mg n = 7; IBI362 4.5 mg n = 5; […]
mg n = 6; IBI362 6.0 mg n = 8; Pooled placebo n = 11; Dulaglutide n = 6. BMI = body-mass index; CFB = change from baseline; DBP = diastolic blood pressure; SBP = systolic blood pressure; SD = standard deviation. Source data are provided as a Source Data file.
CFB in BMI at week 12 (kg/m2), […]
at week 12 (mm Hg), mean (SD)
CFB in waist circumference at week 12 (cm), mean (SD) […]

[4] = Immunogenicity: anti-IBI362 antibody (ADA) and neutralizing antibody
Text: Standard non-compartmental pharmacokinetics methods were used to analyze IBI362 plasma concentration data using Pkanalix 2020R1 (Lixoft, Antony, France). Secondary efficacy outcomes included change from baseline to week 12 in HbA1c, fasting plasma glucose (FPG), fasting insulin levels, change from baseline to week 12 in post-mixed-meal tolerance test (post-MTT) glucose, insulin, C peptide, GLP-1 and OXM levels, as well as seven-point self-measured blood glucose (SMBG) profile.
Safety analyses were done in the safety population (defined as all patients who received at least one dose of the study treatment). Pharmacokinetic analyses were done in the pharmacokinetic population (defined as all patients who received at least one dose of IBI362 and had at least one valid plasma concentration assessment). Efficacy analyses were done in the efficacy population (defined as all patients who received at least one dose of the study treatment and had baseline and at least one post-baseline HbA1c assessment). Immunogenicity analyses were done in the immunogenicity population (defined as all patients who received at least one dose of the study treatment and had at least one post-baseline ADA result).
IBI362 Innovent Biologics (Suzhou) Co., Ltd. CIBI362A101
[…] Within 1 hour before D57 administration in Week 9; […]

[5] = tested on: Chinese patients with T2D; experiment: Change from baseline in heart rate, standard 12-lead electrocardiogram
Text: as §1
CFB in heart rate (beats/min),
Fig. S1: Change from baseline in heart rate over time.
Data are from standard 12-lead electrocardiogram, measured at 1 hour before each dose in the morning from week 0 to week 11, and 168 hours after the last dose (week 12). Data are plotted as means +/- SD. CFB = change from baseline; SD = standard deviation.Source data are provided as […]
(1 picture or pasted object on this page, not shown here)

CC(C)C[C@H](NC(=O)[C@H](CC(C)C)NC(=O)[C@H](Cc1c[nH]c2ccccc12)NC(=O)[C@H](CCC(=O)O)NC(=O)[C@@H](NC(=O)[C@H](Cc1ccccc1)NC(=O)[C@H](CCC(=O)O)NC(=O)[C@H](CCCCNC(=O)COCCOCCNC(=O)COCCOCCNC(=O)CC[C@H](NC(=O)CCCCCCCCCCCCCCCCCCC(=O)O)C(=O)O)NC(=O)[C@H](C)NC(=O)[C@H](CCCCN)NC(=O)[C@H](CCCCN)NC(=O)[C@H](CCC(=O)O)NC(=O)[C@H](CC(=O)O)NC(=O)[C@H](CC(C)C)NC(=O)[C@H](Cc1ccc(O)cc1)NC(=O)[C@H](CCCCN)NC(=O)[C@H](CO)NC(=O)[C@H](Cc1ccc(O)cc1)NC(=O)[C@H](CC(=O)O)NC(=O)[C@H](CO)NC(=O)[C@@H](NC(=O)[C@H](Cc1ccccc1)NC(=O)[C@@H](NC(=O)CNC(=O)[C@H](CCC(N)=O)NC(=O)C(C)(C)NC(=O)[C@@H](N)Cc1c[nH]cn1)[C@@H](C)O)[C@@H](C)O)C(C)C)C(=O)N[C@@H](CCC(=O)O)C(=O)NCC(=O)NCC(=O)N1CCC[C@H]1C(=O)N[C@@H](CO)C(=O)N[C@@H](CO)C(=O)NCC(N)=O [IBI362]
Change from baseline to week 12 in HOMA-β, mean ([1]; 3.0 mg cohort, n=7): 9.2%
Change from baseline to week 12 in HOMA-β, mean ([1]; 4.5 mg cohort, n=5): 26.4%
Change from baseline to week 12 in HOMA-β, mean ([1]; 6.0 mg cohort, n=8): 21.0%
Change from baseline to week 12 in HOMA-β, individual ([1]; 3.0 mg cohort, n=7): -8.1% and 15.7% and 23.0% and -3.8% and 14.4% and 16.4% and 6.9%
Change from baseline to week 12 in HOMA-β, individual ([1]; 4.5 mg cohort, n=5): -9.6% and 82.4% and -0.3% and 47.8% and 11.6%
Change from baseline to week 12 in HOMA-β, individual ([1]; 6.0 mg cohort, n=8): -6.2% and 6.9% and 72.2% and 5.4% and 33.9% and 27.9% and -1.8% and 29.8%
Change from baseline in ALT, mean ([2]; week 4, 3.0 mg cohort): 3.76 U/L
Change from baseline in AST, mean ([2]; week 4, 3.0 mg cohort): 1.13 U/L
Change from baseline in ALT, mean ([2]; week 4, 4.5 mg cohort): -3.50 U/L
Change from baseline in AST, mean ([2]; week 4, 4.5 mg cohort): -2.03 U/L
Change from baseline in ALT, mean ([2]; week 4, 6.0 mg cohort): -7.38 U/L
Change from baseline in AST, mean ([2]; week 4, 6.0 mg cohort): -2.56 U/L
Change from baseline in ALT, mean ([2]; week 8, 3.0 mg cohort): -6.34 U/L
Change from baseline in AST, mean ([2]; week 8, 3.0 mg cohort): -1.20 U/L
Change from baseline in ALT, mean ([2]; week 8, 4.5 mg cohort): -7.66 U/L
Change from baseline in AST, mean ([2]; week 8, 4.5 mg cohort): -1.26 U/L
Change from baseline in ALT, mean ([2]; week 8, 6.0 mg cohort): -8.50 U/L
Change from baseline in AST, mean ([2]; week 8, 6.0 mg cohort): -3.36 U/L
Change from baseline in ALT, mean ([2]; week 12, 3.0 mg cohort): -6.34 U/L
Change from baseline in AST, mean ([2]; week 12, 3.0 mg cohort): -2.49 U/L
Change from baseline in ALT, mean ([2]; week 12, 4.5 mg cohort): -10.66 U/L
Change from baseline in AST, mean ([2]; week 12, 4.5 mg cohort): -2.82 U/L
Change from baseline in ALT, mean ([2]; week 12, 6.0 mg cohort): -8.38 U/L
Change from baseline in AST, mean ([2]; week 12, 6.0 mg cohort): -4.65 U/L
Change from baseline to week 12 in blood pressure, diastolic ([3]; IBI362 3.0 mg): -1.4 mm Hg
Change from baseline to week 12 in blood pressure, systolic ([3]; IBI362 3.0 mg): -8.1 mm Hg
Change from baseline to week 12 in blood pressure, diastolic ([3]; IBI362 4.5 mg): -5.2 mm Hg
Change from baseline to week 12 in blood pressure, systolic ([3]; IBI362 4.5 mg): -6.7 mm Hg
Change from baseline to week 12 in blood pressure, diastolic ([3]; IBI362 6.0 mg): 2.3 mm Hg
Change from baseline to week 12 in blood pressure, systolic ([3]; IBI362 6.0 mg): -3.3 mm Hg
patients who developed anti-IBI362 antibody ([4]; all IBI362 cohorts, n=24 (four patients)): 16.7%
neutralizing antibodies ([4]; post-baseline samples): No neutralizing antibodies were detected
heart rate, mean change from baseline (bound) ([5]; 3.0 mg cohort): < 10 beats per minute
heart rate, mean change from baseline (bound) ([5]; 6.0 mg cohort): < 15 beats per minute
heart rate increase (up to) ([5]; patients receiving IBI362): 10-15 beats per minute

Dulaglutide: open-label active reference, subcutaneously once weekly at a fixed dose of 1.5 mg [reference compound]
Change from baseline to week 12 in HOMA-β, mean ([1]; 1.5 mg once weekly, n=6): 30.9%
Change from baseline to week 12 in HOMA-β, individual ([1]; 1.5 mg once weekly, n=6): 31.2% and 37.1% and 18.9% and 5.2% and 22.2% and 70.7%
Change from baseline in ALT, mean ([2]; week 4, 1.5 mg once weekly): -3.70 U/L
Change from baseline in AST, mean ([2]; week 4, 1.5 mg once weekly): 0.83 U/L
Change from baseline in ALT, mean ([2]; week 8, 1.5 mg once weekly): -4.33 U/L
Change from baseline in AST, mean ([2]; week 8, 1.5 mg once weekly): 1.53 U/L
Change from baseline in ALT, mean ([2]; week 12, 1.5 mg once weekly): -6.92 U/L
Change from baseline in AST, mean ([2]; week 12, 1.5 mg once weekly): 1.58 U/L
Change from baseline to week 12 in blood pressure, diastolic ([3]; Dulaglutide group): 4.0 mm Hg
Change from baseline to week 12 in blood pressure, systolic ([3]; Dulaglutide group): 5.8 mm Hg
heart rate, mean change from baseline (bound) ([5]; 1.5 mg once weekly): < 10 beats per minute
